Measured values taken from patent US9630894B2, “Energy efficient method and apparatus for the extraction of biomolecules from dilute aqueous solution” (DYNASEP INC., priority 2012, dated 2017).
Entries after “also recorded” stand apart in the source; their conditions may differ.

Key:
fermentation cultures [1] = test: DME toxicity study: cell growth by absorption at 600 nm (A600); format: cell-based
Protocol: (§1) Toxicity studies were performed to determine the effects of DME on fermentation cultures. Cell growth, viability and solvent production were measured to determine what effect DME has on fermentation cultures. Cell growth was monitored by absorption measurements taken at 600 nm (A600). Viability was measured by counting the colony forming units (CFU) after 24 hours. Solvent production was quantified by HPLC.
(§2) The first round of testing was performed using media that had been sparged with DME gas at 23° C. The amount of DME absorbed into the media was measured by weight gain after sparging. […] Two control cultures were also used for direct comparison of cultures with and without the presence of DME.
A second round of testing was performed at lower DME concentrations. […] Based on the solvent measurements in Table 8 and Table 9 solvent production was also unaffected by DME at 0.7 wt. %. […] This is apparent after examination of the cell density and solvent production for samples 1-5, 2-1, 2-4 and 2-5 in comparison to the control samples 1-B and 2-B.

fermentation cultures [2] = test: DME toxicity study: viability by colony forming units (CFU) after 24 hours; format: cell-based
Protocol: as §1, §2

[3] = DME saturation concentration in fermentation broth; format: physicochemical; settings: fermentation conditions of 38° C.
[4] = cited from earlier work

## COC [DME, dimethyl ether]
Fermentation cultures [1]; DME above 2.5 wt. % (2.5 to 3 wt. %)
  effect on growth and solvent production: substantial decrease; also recorded: more substantially inhibited; also recorded: severely inhibit
Fermentation cultures [1]; DME approximately 1.6 wt. %
  effect on growth and solvent production: some inhibition; also recorded: partially inhibit
Fermentation cultures [1]; DME below 0.7 wt. %
  effect on cell growth and solvent production: did not appear to inhibit growth; also recorded: do not have a noticeable effect; also recorded: have no observable effect; also recorded: no noticeable effect
Fermentation cultures [1]; culture 1-1, […] DME, 4 hours
  A600: 0.184
Fermentation cultures [1]; culture 1-1, […] DME, 7 hours
  A600: 0.241
Fermentation cultures [1]; culture 1-1, […] DME, 28 hours
  A600: 0.137
Fermentation cultures [1]; culture 1-1, […] DME, 196 hours
  A600: 0.075
Fermentation cultures [1]; culture 1-2, 3.48% DME, 4 hours
  A600: 0.205
Fermentation cultures [1]; culture 1-2, 3.48% DME, 7 hours
  A600: 0.194
Fermentation cultures [1]; culture 1-2, 3.48% DME, 28 hours
  A600: 0.175
Fermentation cultures [1]; culture 1-2, 3.48% DME, 196 hours
  A600: 0.39
Fermentation cultures [1]; culture 1-2, DME 18.1 g/L, 3 hours
  A600 values: 0.523
Fermentation cultures [1]; culture 1-2, DME 18.1 g/L, 24 hours
  A600 values: 2.565
Fermentation cultures [1]; culture 1-2, DME 18.1 g/L, 40 hours
  A600 values: 1.82
Fermentation cultures [1]; culture 1-2, DME 18.1 g/L, 64 hours
  A600 values: 1.97
Fermentation cultures [1]; culture 1-3, DME 19.4 g/L, 3 hours
  A600 values: 0.463
Fermentation cultures [1]; culture 1-3, DME 19.4 g/L, 24 hours
  A600 values: 2.695
Fermentation cultures [1]; culture 1-3, DME 19.4 g/L, 40 hours
  A600 values: 2.16
Fermentation cultures [1]; culture 1-3, DME 19.4 g/L, 64 hours
  A600 values: 2.15
Fermentation cultures [1]; culture 1-3, […] DME, 4 hours
  A600: 0.340
Fermentation cultures [1]; culture 1-3, […] DME, 7 hours
  A600: 0.690
Fermentation cultures [1]; culture 1-3, […] DME, 22 hours
  A600: 1.745
Fermentation cultures [1]; culture 1-3, […] DME, 28 hours
  A600: 1.69
Fermentation cultures [1]; culture 1-3, […] DME, 196 hours
  A600: 1.08
Fermentation cultures [1]; culture 1-4*, DME 43.8 g/L, 3 hours
  A600 values: 0.807
Fermentation cultures [1]; culture 1-4*, DME 43.8 g/L, 24 hours
  A600 values: 3.005
Fermentation cultures [1]; culture 1-4*, DME 43.8 g/L, 40 hours
  A600 values: 1.95
Fermentation cultures [1]; culture 1-4*, DME 43.8 g/L, 64 hours
  A600 values: 2.14
Fermentation cultures [1]; culture 1-5, DME 25.8 g/L, 3 hours
  A600 values: 0.543
Fermentation cultures [1]; culture 1-5, DME 25.8 g/L, 24 hours
  A600 values: 1.415
Fermentation cultures [1]; culture 1-5, DME 25.8 g/L, 40 hours
  A600 values: 1.28
Fermentation cultures [1]; culture 1-5, DME 25.8 g/L, 64 hours
  A600 values: 1.26
Fermentation cultures [1]; culture 2-1, DME 26.0 g/L, 3 hours
  A600 values: 0.505
Fermentation cultures [1]; culture 2-1, DME 26.0 g/L, 24 hours
  A600 values: 1.390
Fermentation cultures [1]; culture 2-1, DME 26.0 g/L, 40 hours
  A600 values: 2.48
Fermentation cultures [1]; culture 2-1, DME 26.0 g/L, 64 hours
  A600 values: 2.24
Fermentation cultures [1]; culture 2-1, weight % DME printed as ?, 4 hours
  A600: 0.140
Fermentation cultures [1]; culture 2-1, weight % DME printed as ?, 7 hours
  A600: 0.157
Fermentation cultures [1]; culture 2-1, weight % DME printed as ?, 28 hours
  A600: 0.072
Fermentation cultures [1]; culture 2-1, weight % DME printed as ?, 196 hours
  A600: 0.05
Fermentation cultures [1]; culture 2-2, 3.92% DME, 4 hours
  A600: 0.173
Fermentation cultures [1]; culture 2-2, 3.92% DME, 7 hours
  A600: 0.178
Fermentation cultures [1]; culture 2-2, 3.92% DME, 28 hours
  A600: 0.127
Fermentation cultures [1]; culture 2-2, 3.92% DME, 196 hours
  A600: 0.32
Fermentation cultures [1]; culture 2-2, DME 6.8 g/L, 3 hours
  A600 values: 0.776
Fermentation cultures [1]; culture 2-2, DME 6.8 g/L, 24 hours
  A600 values: 3.755
Fermentation cultures [1]; culture 2-2, DME 6.8 g/L, 40 hours
  A600 values: 1.29
Fermentation cultures [1]; culture 2-2, DME 6.8 g/L, 64 hours
  A600 values: 1.36
Fermentation cultures [1]; culture 2-3, 3.72% DME, 4 hours
  A600: 0.230
Fermentation cultures [1]; culture 2-3, 3.72% DME, 7 hours
  A600: 0.159
Fermentation cultures [1]; culture 2-3, 3.72% DME, 28 hours
  A600: 0.077
Fermentation cultures [1]; culture 2-3, 3.72% DME, 196 hours
  A600: 0.06
Fermentation cultures [1]; culture 2-3, DME 6.6 g/L, 3 hours
  A600 values: 0.783
Fermentation cultures [1]; culture 2-3, DME 6.6 g/L, 24 hours
  A600 values: 3.700
Fermentation cultures [1]; culture 2-3, DME 6.6 g/L, 40 hours
  A600 values: 2.65
Fermentation cultures [1]; culture 2-3, DME 6.6 g/L, 64 hours
  A600 values: 2.63
Fermentation cultures [1]; culture 2-4, DME 29.1 g/L, 3 hours
  A600 values: 0.590
Fermentation cultures [1]; culture 2-4, DME 29.1 g/L, 24 hours
  A600 values: 1.195
Fermentation cultures [1]; culture 2-4, DME 29.1 g/L, 40 hours
  A600 values: 2.63
Fermentation cultures [1]; culture 2-4, DME 29.1 g/L, 64 hours
  A600 values: 2.19
Fermentation cultures [1]; culture 2-5, DME 27.9 g/L, 3 hours
  A600 values: 0.885
Fermentation cultures [1]; culture 2-5, DME 27.9 g/L, 24 hours
  A600 values: 1.735
Fermentation cultures [1]; culture 2-5, DME 27.9 g/L, 40 hours
  A600 values: 1.18
Fermentation cultures [1]; culture 2-5, DME 27.9 g/L, 64 hours
  A600 values: 1.19
Fermentation cultures [1]; media containing 3 to 4 wt. % DME
  effect on cell growth: substantial reduction in cell growth
Fermentation cultures [2]; DME approximately 3 wt. %, cultures 1-2 and 1-3
  effect on cell viability (CFU): not toxic
Fermentation cultures [2]; DME approximately 4 wt. %, second set of cultures
  effect on cell viability (CFU): toxicity issues
Fermentation cultures [2]; culture 1-1, […] DME
  CFU/ml after 24 hours: 770 CFU/ml
Fermentation cultures [2]; culture 1-2, 3.48% DME
  CFU/ml after 24 hours: >10000 CFU/ml
Fermentation cultures [2]; culture 1-3, […] DME
  CFU/ml after 24 hours: 200000 CFU/ml
Fermentation cultures [2]; culture 2-1, weight % DME printed as ?
  CFU/ml after 24 hours: 0 CFU/ml
Fermentation cultures [2]; culture 2-2, 3.92% DME
  CFU/ml after 24 hours: 4480 CFU/ml
Fermentation cultures [2]; culture 2-3, 3.72% DME
  CFU/ml after 24 hours: 130 CFU/ml
[3]
  amount of DME in the broth (saturation): ~2.3 wt. %
[4]
  solubility in water: approximately 20 wt. %
